Measurements as given in patent US12173018B2, “Penicillin-binding protein inhibitors” (priority 2018, dated 2024).
Read-outs that look alike come from different tables or passages of the source.

Target: E. coli PBP3 (Escherichia coli (strain K12), UniProt P0AD68)
Experiment: E. coli PBP3 Bocillin-FL fluorescence polarization competition binding assay
Excerpt: To determine the ability of boronic acid-based test PBP inhibitors to bind Penicillin Binding Proteins (PBPs), Bocillin-FL (fluorescently-labeled penicillin V; ThermoFisher Scientific) was used in a fluorescence polarization (FP) competition binding assay to assess inhibitor binding to PBP2, PBP3 or PBP4 from Escherichia coli. PBPs were cloned and purified as described previously (King, D. T, et al., ACS Infectious Diseases 2015, 1, 175-184). To establish assay conditions for competition binding, an enzyme titration/saturation binding experiment was initially performed. Bocillin-FL was prepared at 0.2 μM in a buffer comprised of 50 mM Hepes (pH 8.0), 300 mM NaCl and 5% (v/v) glycerol. Saturation binding was performed by mixing 40 μl of PBP solutions ranging in concentrations from 0-12 μM with 40 μl of the 0.2 μM Bocillin-FL solution, in individual wells of a black 384-well microplate. FP was measured immediately upon mixing (Excitation, 490 nm; Emission, 520 nm; g-factor, 0.96), using a Cytation3 (BioTek) microplate reader and measured continuously for up to 120 minutes. […] Assays (80 μl final volume) were performed with PBPs at a final concentration of 1.5 μM, Bocillin-FL at 0.1 μM and beta-lactam concentrations that ranged from 0-1000 μM. […] Bocillin-FL was added and the FP immediately measured for 60 minutes (90 minutes for PBP2). The beta-lactam potency was reported as the concentration of beta-lactam required to reduce binding of Bocillin-FL by […] (EC50). […] Binding assays for boronic acid PBP inhibitors were performed in an identical fashion.

[1] = fluorescence polarization competition binding with Bocillin-FL, read-out: E. coli K12 PBP3 Potency

Chain of E. coli PBP3 (P0AD68 whole entry): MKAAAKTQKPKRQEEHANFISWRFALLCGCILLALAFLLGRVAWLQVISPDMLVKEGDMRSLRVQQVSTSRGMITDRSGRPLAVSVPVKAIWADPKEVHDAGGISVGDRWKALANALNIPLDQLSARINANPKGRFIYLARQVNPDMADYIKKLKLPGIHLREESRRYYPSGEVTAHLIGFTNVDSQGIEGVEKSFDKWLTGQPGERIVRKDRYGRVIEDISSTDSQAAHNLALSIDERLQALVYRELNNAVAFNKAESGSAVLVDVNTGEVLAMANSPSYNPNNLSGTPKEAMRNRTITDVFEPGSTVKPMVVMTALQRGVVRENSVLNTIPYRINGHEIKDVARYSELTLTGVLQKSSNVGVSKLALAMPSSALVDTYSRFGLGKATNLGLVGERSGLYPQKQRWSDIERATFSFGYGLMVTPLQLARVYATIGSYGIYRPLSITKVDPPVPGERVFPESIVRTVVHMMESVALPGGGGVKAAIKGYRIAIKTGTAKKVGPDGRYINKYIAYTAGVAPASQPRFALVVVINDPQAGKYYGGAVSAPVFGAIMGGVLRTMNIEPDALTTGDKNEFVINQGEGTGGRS

Structure (SMILES) | EC50 | EC50 [1]
CCN1CCN(C(=O)NC(C(=O)N[C@H]2Cc3cccc(C(=O)O)c3OB2O)[C@H](O)C(F)(F)F)C(=O)C1=O (mixture of isomers) [Example 157, (3R)-3-((3S)-2-(4-ethyl-2,3-dioxopiperazine-1-carboxamido)-4,4,4-trifluoro-3-hydroxybutanamido)-2-hydroxy-3,4-dihydro-2H-benzo[e][1,2]oxaborinine-8-carboxylic acid] | > 500 µM | –
CCN1CCN(C(=O)NC(CC(=O)N[C@H]2Cc3cccc(C(=O)O)c3OB2O)c2cc(O)c(O)c(Br)c2)C(=O)C1=O (stereo partly drawn) [Example 42, (3R)-3-(3-(3-bromo-4,5-dihydroxyphenyl)-3-(4-ethyl-2,3-dioxopiperazine-1-carboxamido)propanamido)-2-hydroxy-3,4-dihydro-2H-benzo[e][1,2]oxaborinine-8-carboxylic acid] | 30 to 500 µM | –
CCN1CCN(C(=O)NC(C(=O)N[C@H]2Cc3cccc(C(=O)O)c3OB2O)c2cccc(O)c2O)C(=O)C1=O (stereo partly drawn) [Example 44, (3R)-3-(2-(2,3-dihydroxyphenyl)-2-(4-ethyl-2,3-dioxopiperazine-1-carboxamido)acetamido)-2-hydroxy-3,4-dihydro-2H-benzo[e][1,2]oxaborinine-8-carboxylic acid] | – | > 500 µM
CCN1CCN(C(=O)NC(C(=O)N[C@H]2Cc3cccc(C(=O)O)c3OB2O)c2ccc(O)c(OCCNC(=O)OCc3ccccc3)c2)C(=O)C1=O (stereo partly drawn) [Example 50, (3R)-3-(2-(3-(2-(((benzyloxy)carbonyl)amino)ethoxy)-4-hydroxyphenyl)-2-(4-ethyl-2,3-dioxopiperazine-1-carboxamido)acetamido)-2-hydroxy-3,4-dihydro-2H-benzo[e][1,2]oxaborinine-8-carboxylic acid] | 30 to 500 µM | –
CCN1CCN(C(=O)NC(C(=O)N[C@H]2Cc3cccc(C(=O)O)c3OB2O)c2cccc(OC)n2)C(=O)C1=O (stereo partly drawn) [Example 120, (3R)-3-(2-(4-ethyl-2,3-dioxopiperazine-1-carboxamido)-2-(6-methoxypyridin-2-yl)acetamido)-2-hydroxy-3,4-dihydro-2H-benzo[e][1,2]oxaborinine-8-carboxylic acid] | 30 to 500 µM | –
CCN1CCN(C(=O)NC(C(=O)N[C@H]2Cc3cccc(C(=O)O)c3OB2O)C2CCCO2)C(=O)C1=O (stereo partly drawn) [Example 122, (3R)-3-(2-(4-ethyl-2,3-dioxopiperazine-1-carboxamido)-2-(tetrahydrofuran-2-yl)acetamido)-2-hydroxy-3,4-dihydro-2H-benzo[e][1,2]oxaborinine-8-carboxylic acid] | 30 to 500 µM | –
CCCN1CCN(C(=O)N[C@@H](C(=O)N[C@H]2Cc3ccc(F)c(C(=O)O)c3OB2O)[C@@H](C)O)C(=O)C1=O [Example 133, (R)-3-((2R,3R)-2-(2,3-dioxo-4-propylpiperazine-1-carboxamido)-3-hydroxybutanamido)-7-fluoro-2-hydroxy-3,4-dihydro-2H-benzo[e][1,2]oxaborinine-8-carboxylic acid] | – | > 500 µM
CCN1CCN(C(=O)N[C@H](C(=O)N[C@H]2Cc3ccc(F)c(C(=O)O)c3OB2O)c2ccsc2)C(=O)C1=O [Example 139, (R)-3-((S)-2-(4-ethyl-2,3-dioxopiperazine-1-carboxamido)-2-(thiophen-3-yl)acetamido)-7-fluoro-2-hydroxy-3,4-dihydro-2H-benzo[e][1,2]oxaborinine-8-carboxylic acid] | 30 to 500 µM | –
CCN1CCN(C(=O)N[C@@H](C(=O)N[C@H]2Cc3cccc(C(=O)O)c3OB2O)[C@H](C)OC)C(=O)C1=O [Example 146, (R)-3-((2R,3S)-2-(4-ethyl-2,3-dioxopiperazine-1-carboxamido)-3-methoxybutanamido)-2-hydroxy-3,4-dihydro-2H-benzo[e][1,2]oxaborinine-8-carboxylic acid] | 30 to 500 µM | –
CCN1CCN(C(=O)N[C@H](C(=O)N[C@H]2Cc3cccc(C(=O)O)c3OB2O)[C@H](C)OC)C(=O)C1=O [Example 147, (R)-3-((2S,3S)-2-(4-ethyl-2,3-dioxopiperazine-1-carboxamido)-3-methoxybutanamido)-2-hydroxy-3,4-dihydro-2H-benzo[e][1,2]oxaborinine-8-carboxylic acid] | – | > 500 µM
CCN1CCN(C(=O)N[C@@H](C(=O)N[C@H]2Cc3ccc(F)c(C(=O)O)c3OB2O)[C@H](O)C(F)(F)F)C(=O)C1=O [Example 158, (R)-3-((2R,3S)-2-(4-ethyl-2,3-dioxopiperazine-1-carboxamido)-4,4,4-trifluoro-3-hydroxybutanamido)-7-fluoro-2-hydroxy-3,4-dihydro-2H-benzo[e][1,2]oxaborinine-8-carboxylic acid] | 30 to 500 µM | –
CCN1CCN(C(=O)N[C@H](C(=O)N[C@H]2Cc3ccc(F)c(C(=O)O)c3OB2O)[C@H](O)C(F)(F)F)C(=O)C1=O [Example 159, (R)-3-((2S,3S)-2-(4-ethyl-2,3-dioxopiperazine-1-carboxamido)-4,4,4-trifluoro-3-hydroxybutanamido)-7-fluoro-2-hydroxy-3,4-dihydro-2H-benzo[e][1,2]oxaborinine-8-carboxylic acid] | – | > 500 µM
CCN1CCN(C(=O)N[C@@H](C(=O)N[C@H]2Cc3ccc(F)c(C(=O)O)c3OB2O)[C@H](O)C(F)F)C(=O)C1=O [Example 163, (R)-3-((2R,3S)-2-(4-ethyl-2,3-dioxopiperazine-1-carboxamido)-4,4-difluoro-3-hydroxybutanamido)-7-fluoro-2-hydroxy-3,4-dihydro-2H-benzo[e][1,2]oxaborinine-8-carboxylic acid] | – | < 30 µM
CCN1CCN(C(=O)N[C@H](C(=O)N[C@H]2Cc3ccc(F)c(C(=O)O)c3OB2O)[C@H](O)C(F)F)C(=O)C1=O [Example 164, (R)-3-((2S,3S)-2-(4-ethyl-2,3-dioxopiperazine-1-carboxamido)-4,4-difluoro-3-hydroxybutanamido)-7-fluoro-2-hydroxy-3,4-dihydro-2H-benzo[e][1,2]oxaborinine-8-carboxylic acid] | – | > 500 µM
CCN1CCN(C(=O)NC(C(=O)N[C@H]2Cc3ccc(F)c(C(=O)O)c3OB2O)c2cscn2)C(=O)C1=O (stereo partly drawn) [Example 165, (3R)-3-(2-(4-ethyl-2,3-dioxopiperazine-1-carboxamido)-2-(thiazol-4-yl)acetamido)-7-fluoro-2-hydroxy-3,4-dihydro-2H-benzo[e][1,2]oxaborinine-8-carboxylic acid] | 30 to 500 µM | –
CCN1CCN(C(=O)N[C@@H](C(=O)N[C@H]2Cc3cccc(C(=O)O)c3OB2O)[C@H](O)C(F)F)C(=O)C1=O [Example 173, (R)-3-((2R,3S)-2-(4-ethyl-2,3-dioxopiperazine-1-carboxamido)-4,4-difluoro-3-hydroxybutanamido)-2-hydroxy-3,4-dihydro-2H-benzo[e][1,2]oxaborinine-8-carboxylic acid] | – | > 500 µM
CCN1CCN(C(=O)N[C@H](C(=O)N[C@H]2Cc3cccc(C(=O)O)c3OB2O)[C@H](O)C(F)F)C(=O)C1=O [Example 174, (R)-3-((2S,3S)-2-(4-ethyl-2,3-dioxopiperazine-1-carboxamido)-4,4-difluoro-3-hydroxybutanamido)-2-hydroxy-3,4-dihydro-2H-benzo[e][1,2]oxaborinine-8-carboxylic acid] | – | > 500 µM
CCN1CCN(C(=O)NC(C(=O)N[C@H]2Cc3cc(F)c(F)c(C(=O)O)c3OB2O)c2csc(N)n2)C(=O)C1=O (stereo partly drawn) [Example 175, (3R)-3-(2-(2-aminothiazol-4-yl)-2-(4-ethyl-2,3-dioxopiperazine-1-carboxamido)acetamido)-6,7-difluoro-2-hydroxy-3,4-dihydro-2H-benzo[e][1,2]oxaborinine-8-carboxylic acid] | 30 to 500 µM | –
CCN1CCN(C(=O)NC(C(=O)N[C@H]2Cc3c(F)cc(F)c(C(=O)O)c3OB2O)c2csc(N)n2)C(=O)C1=O (stereo partly drawn) [Example 184, (3R)-3-(2-(2-aminothiazol-4-yl)-2-(4-ethyl-2,3-dioxopiperazine-1-carboxamido)acetamido)-5,7-difluoro-2-hydroxy-3,4-dihydro-2H-benzo[e][1,2]oxaborinine-8-carboxylic acid] | 30 to 500 µM | –
CCN1CCN(C(=O)NC(C(=O)N[C@H]2Cc3cccc(C(=O)O)c3OB2O)c2csc(N)n2)C(O)C1=O (stereo partly drawn) [Example 193, (3R)-3-(2-(2-aminothiazol-4-yl)-2-(4-ethyl-2-hydroxy-3-oxopiperazine-1-carboxamido)acetamido)-2-hydroxy-3,4-dihydro-2H-benzo[e][1,2]oxaborinine-8-carboxylic acid] | 30 to 500 µM | –
